Source: paper PMC12095705, “Diversity and enzymatic activity of Polish beehive products microbiota, and characterization of a novel β-galactosidase from Paenibacillus sp. 8” (Scientific Reports, 2025)

Biological target: T1, BgaP β-galactosidase
T1 construct: recombinant full-length, 675 amino acids (GenBank XED97098)
Experiment: inhibition of ONPG hydrolysis by purified enzyme, […] °C, pH […]; Lineweaver-Burk
Format: biochemical, Paenibacillus sp. 8

| SMILES | Ki |
| --- | --- |
| OC[C@H]1OC(O)[C@H](O)[C@@H](O)[C@H]1O (some centres unmarked) [galactose] | 6.99 mM |
| OC[C@H]1OC(O)[C@H](O)[C@@H](O)[C@@H]1O (some centres unmarked) [glucose] | 27.3 mM |
